Data on 1 molecule can be found in patent US4179451A, “Novel hydroxy substituted 15-deoxy-5-cis-prostenoic acids and esters” (American Cyanamid Company, priority 1978, dated 1979).

The subject of assay [1] is bronchospasms elicited by histamine. The assay can be described thus: Bronchodilator Activity (Konzett Assays), histamine. Format: in vivo, guinea pigs. To be noted: Cavia porcellus; three logarithmic cumulative intravenous doses; spasmogen histamine; read-out: ED50, Spasmogenic Agent histamine. How it is done: (§1) The compounds of this invention are useful as bronchodilators for the treatment of asthma and chronic bronchitis. Bronchodilator activity is determined in guinea pigs against bronchospasms elicited by intravenous injections of 5-hydroxytryptamine, histamine or acetylcholine by the Konzett procedure. [See J. Lulling, P. Lievens, F. El Sayed and J. Prignot, Arzneimittel-Forschung, 18, 955 (1968).]
(§2) In Table IV which follows bronchodilator activity for representative compounds of this invention against one or more of three spasmogenic agents is expressed as an ED50 determined from the results obtained with three logarithmic cummulative intravenous doses. In this assay, these compounds of this invention provide an effect of longer duration than does natural l-PGE1 or l-PGE2.

The test system of assay [2] is ulcerogenic properties of indomethacin. The assay can be described thus: protection against the ulcerogenic properties of indomethacin. The conditions noted are these: indomethacin 20 mg./kg. s.c., score 0 (normal stomach) to 4, control 3.0. The assay is classed as in vivo, Rats. How it is done: The protection against the ulcerogenic properties of indomethacin was determined in the following manner. Rats were starved for 48 hours (water was given ad libitum). Indomethacin (20 mg./kg. of body weight) was administered by the subcutaneous route and one-half the dose of the test compound was administered by gavage at the same time. After three hours, the second half of the test compound was administered also by gavage. Five hours after the administration of indomethacin the animals were decapitated and the stomachs removed. The stomachs were washed with distilled water, blotted on gauze, cut along the larger curvature, and the contents rinsed with distilled water. The stomachs were spread out, pinned on a cork and visualized under magnifying glass for ulcers. The criteria for scoring of ulcers was as previously reported [Abdel-Galil et al. Brit. J. Pharmac. Chemotherapy 33:1-14 (1968)].
1--Petechial hemorrhage or pin point ulcer
3--Many ulcers, a few large
4--Many ulcers, mainly large
A difference of at least 0.7 unit between the scores for control animals (treated with indomethacin but not test compound) and animals treated with indomethacin and test compound is considered indicative of activity from the test compound. […]

For a further assay, the system named is gastric acid secretion. In words: Gastric acid secretion inhibitory action (Shay rat procedure). Format: in vivo, rats (male, CFE strain).
Assay [3] deals with mean arterial blood pressure. The assay can be described thus: Hypotensive Response (normotensive rat). The conditions noted are these: intravenous 2.1 mg./kg.; anesthetized rat. The assay is classed as in vivo, Male Wistar strain rats. How it is done:
This procedure is a modification of the techniques described by Pike et al., Prostaglandins, Nobel Symposium 2, Stockholm, June, 1966; p. 165.
Male Wistar strain rats (Royal Hart Farms) averaging approximately 250 grams in weight were fastened to rat boards in a supine position by means of canvas vests and limb ties. The femoral area was infiltrated subcutaneously with lidocaine and the iliac artery and vein were exposed and cannulated. Arterial blood pressure (systolic/diastolic) was recorded using a Statham P23 Bb pressure transducer-Offner dynograph system. To obtain a stable blood pressure, the animals were anethetized before use with pentobarbital, 30 mg./kg. of body weight intravenously, and also were given hexamethoxium bitartrate, 2 mg./kg. of body weight intravenously. The test compounds were prepared by ultrasonic dispersion in a Saline-Tween 80® vehicle. A constant intravenous dose volume of 0.5 ml. was administered and test doses ranged from 0.1 to 10.0 mg./kg. of body weight.
In Table V below are recorded the percent decrease from normal of mean arterial blood pressure induced by given doses of representative compounds of this invention.

Assay [4] has as its system bronchospasms elicited by 5-hydroxytryptamine. In words: Bronchodilator Activity (Konzett Assays), 5-hydroxytryptamine. Format: in vivo, guinea pigs. To be noted: Cavia porcellus; three logarithmic cumulative intravenous doses; spasmogen 5-hydroxytryptamine; read-out: ED50, Spasmogenic Agent 5-hydroxytryptamine. How it is done: as §1, §2
In assay [5] the test system is bronchospasms elicited by acetylcholine. In words: Bronchodilator Activity (Konzett Assays), acetylcholine. Format: in vivo, guinea pigs. The conditions noted are these: Cavia porcellus; three logarithmic cumulative intravenous doses; spasmogen acetylcholine; read-out: ED50, Spasmogenic Agent Acetylcholine. How it is done: as §1, §2
Assay [6] concerns basal gastric acid secretion. In words: Inhibition of basal gastric acid secretion in the Acute Gastric Fistula Rat. The assay is classed as in vivo, Female Sprague-Dawley rats. The conditions noted are these: 1 h, intraduodenal 2.5 mg./kg., after 60 minutes, read-out: % Inhibition of Total Acid or Output.
For assay [7], the system named is basal gastric acid secretion. The assay is described as above. The assay is classed as in vivo, Female Sprague-Dawley rats. To be noted: 1 h, intraduodenal 10 mg./kg., after 60 minutes, read-out: % Inhibition of Total Acid or Output. How it is done:
Inhibition of basal gastric acid secretion can be determined by the following procedure. Female Sprague-Dawley rats weighing 140-160 grams are fastened in individual cages for 18-24 hours. The rats are then lightly anesthetized with ether and their front teeth extracted to avoid destruction of the plastic cannula. A midline incision is then made and the stomach and duodenum exposed. A flanged polyvinyl tube is inserted into the fundic portion of the stomach and secured with a purse string suture line using 4-O Mersilene. The rat is then dosed by injection of the compound into the duodenum (1.0 ml. per 100 gram body weight). After dosing, the abdominal wall and skin are closed using metal wound clips. The rat is replaced in a cage containing a longitudinal slit to allow the polyvinyl tube to hang freely. An 8 ml. plastic collecting tube is attached to the flanged cannula and hangs freely below the cage. The first 30 minute sample is discarded designating this time as zero. The collecting tube is attached again and samples removed at the end of 60 and/or 120 minutes. The hourly samples are then transferred to a 15 ml. centrifuge and centrifuged for 5-10 minutes. Total and sediment volume are then recorded with supernatent volume being used as volume of secretion. A 1 ml. or less aliquot is then removed and placed in a 50 ml. beaker containing 10 ml. of distilled water. This sample is then titrated using 0.01 N to Na H to pH 7.0 using a Beckman zeromatic pH meter. Volume, titratable acidity (meq/L) and total acid output (μeq/hour) are recorded. Percent inhibition is determined by comparison with the appropriate control. Groups of three rats are used for preliminary testing, and groups of six rats are used for dose-response evaluations. All compounds are administered in a vehicle consisting of 0.5% methocel, 0.4% tween 80, and saline at a constant volume of 1 ml./100 gram rat. Samples are dispersed by sonification. Percent inhibition is calculated on basis of concurrent vehicle control.
In Table III which follows is given the effect on total acid output after 60 minutes of a 10 mg./kg. intraduodenal dose of representative compounds of this invention.

Each structure is given as a SMILES string.

Usually ED50 stands for the dose that gives a 50% effect, or the effect in half of the subjects.

Take `CCCCC(O)C/C=C/[C@H]1[C@H](O)CC(=O)[C@@H]1C/C=C\CCCC(=O)O` (relative stereo) [9-oxo-11α,16-dihydroxy-5-cis; 13-trans-prostadienoic acid]: the ED50 in assay [1] is 2.1 µg/kg; in assay [4], 3.6 µg/kg; in assay [5], 17.3 µg/kg. In addition, the results for the Score treated in assay [2] (total oral dose 0.39 mg./kg. of body weight) and in assay [2] (total oral dose 0.78 mg./kg. of body weight) were 2.0 and 1.0, respectively. In addition, the “Percent Inhibition” value in the assay with gastric acid secretion (subcutaneous dose 0.4 mg./kg.) is listed as 35%; in the assay with gastric acid secretion (subcutaneous dose 0.8 mg./kg.), 44%; in the assay with gastric acid secretion (subcutaneous dose 1.6 mg./kg.) it was 48%. Moreover, the “% Decrease in Mean Arterial Blood Pressure” value in assay [3] is listed as 27%. In addition, the inhibition in vivo at 2.5 mg/kg in assay [6] came out at 42%. For the same molecule, the inhibition in vivo at 10 mg/kg in assay [7] is 69%.
